Measurements reported in publication PMC7960510 (Immunity, 2021).

B1: TMEM161A: full-length protein TMEM161A expressed in HLA-A*02+ 293T cells (protein, UniProt Q9NX61 1-479, looked up)
chain: MAVLGVQLVVTLLTATLMHRLAPHCSFARWLLCNGSLFRYKHPSEEELRALAGKPRPRGRKERWANGLSEEKPLSVPRDAPFQLETCPLTTVDALVLRFFLEYQWFVDFAVYSGGVYLFTEAYYYMLGPAKETNIAVFWCLLTVTFSIKMFLTVTRLYFSAEEGGERSVCLTFAFLFLLLAMLVQVVREETLELGLEPGLASMTQNLEPLLKKQGWDWALPVAKLAIRVGLAVVGSVLGAFLTFPGLRLAQTHRDALTMSEDRPMLQFLLHTSFLSPLFILWLWTKPIARDFLHQPPFGETRFSLLSDSAFDSGRLWLLVVLCLLRLAVTRPHLQAYLCLAKARVEQLRREAGRIEAREIQQRVVRVYCYVTVVSLQYLTPLILTLNCTLLLKTLGGYSWGLGPAPLLSPDPSSASAAPIGSGEDEVQQTAARIAGALGGLLTPLFLRGVLAYLIWWTAACQLLASLFGLYFHQHLAGS
modifications: full-length

Key:
Format in all cases: cell-based, human
H1395 lung cancer cells = assay: Cell-mediated cytotoxicity of H1395 lung cancer cells by TCR2 primary T cells; conditions: peptide-pulsed A*02+ H1395 cells, TMEM9-mer compared to LMP9-mer
[1] = system: Jurkat cells expressing TCR16; conditions: HLA-A*02:01, T2 cells pulsed with 9-mers
[2] = system: Jurkat cells expressing TCR2 (Jurkat-TCR2); conditions: CD69; T2 cells pulsed with peptide, 2 μM, 18 h
Jurkat-TCR15 clone = assay: Stimulation of Jurkat-TCR15 clone; conditions: HLA-A*02 context; TCR15 CDR3β […]
[3] = system: primary T cells expressing TCR2; conditions: HLA-A*02+ 293T cells overexpressing full-length protein, 1:1 ratio, 18 h

Molecule | stimulation of Jurkat-TCR2 cells (in words) [2] | other results
ALGGLLTPL [TMEM9-mer] | could all stimulate the Jurkat-TCR2 cells | cell-mediated cytotoxicity (in words) (H1395 lung cancer cells): weaker targets for cell-mediated cytotoxicity compared to those with LMP9-mer; recognition by TCR16 (in words) [1]: recognized TMEM9-mer but not the microbial antigens
AMGGLLTQLAM | stimulated Jurkat cells expressing TCR2 | 
CLGGLLTMV [LMP9-mer] | could all stimulate the Jurkat-TCR2 cells | 
KLGGLLTMVGV | stimulated Jurkat cells expressing TCR2 | 
LLGGLLTMV [EntS9-mer] | could all stimulate the Jurkat-TCR2 cells | 
LLGTLVAML |  | stimulation of Jurkat-TCR15 clone (in words) (Jurkat-TCR15 clone): also stimulated the Jurkat-TCR15 clone
B1 |  | stimulation of TCR2-T cells by full-length protein (in words) [3]: appearing to be the weakest stimulator
